SMILES strings stand for the structures.

What all share (assay): Cell proliferation inhibition assay (ATP, CellTiter-Glo)
Format in all cases: cell-based

Experiment [1] deals with PC-3 cells. Particulars: Homo sapiens, 120 h; PC-3, 5 days, 4.5% FBS; read-out: Effect on cell killing (IC50). As for the experimental part:
(§1) In this experiment, the content of ATP in the cells was detected, and the inhibitory effect of the PSMA ADC on the proliferation of cells (ATCC, LNCaP/CRL-1740, 22Rv1/CRL-2505 and PC-3/CRL-1435) was evaluated according to the IC50 values.
(§2) Then 20 μL of the dilution was added to the above cell plate, and incubated in an incubator (37° C., 5% CO2) for 5 days. The compound 2-B (i.e., free toxin of 9-A) was diluted into a stock solution with DSMO, which was then prepared into an initial concentration of 200 μM with PBS, and diluted in a gradient dilution ratio of 1:6 with PBS to obtain 9 concentration points, and an additional 0 concentration point was set. Then 1 μL of the dilution was added to 20 μL of RPMI-1640, and the mixture was transferred to a 96-well culture plate, and incubated in an incubator (37° C., 5% CO2) for 5 days. In the 96-well culture plate, 80 μL of CellTiter-Glo reagent was added to each well, and the plate was incubated at room temperature for 10-15 min away from the light. The chemiluminescence signal values were read on Victor3, and the data were processed using GraphPad software.
PC-3 cells were cultured in an F-12K medium containing 10% FBS, and passaged 2-3 times a week in a passage ratio of 1:3 or 1:6. During passaging, the medium was removed by pipetting, and the cell layer was rinsed with 5 mL of 0.25% pancreatin. […]

Experiment [2] has as its system LNCaP cells. The settings on record: Homo sapiens, 120 h, 5 days, 4.5% FBS, read-out: Effect on cell killing (IC50). As for the experimental part:
as §1
LNCaP cells were cultured in an RPMI-1640 medium containing 10% FBS, and passaged 2-3 times a week in a passage ratio of 1:3 or 1:6. During passaging, the medium was removed by pipetting, and the cell layer was rinsed with 5 mL of 0.25% pancreatin. Then the pancreatin was removed by pipetting, the cells were digested in an incubator for 3-5 min, and then a fresh medium was added to resuspend cells. To a 96-well culture plate were added 180 μL of cell suspension at a density of 2×10^3 cells/well and an RPMI-1640 medium containing 4.5% FBS, and to the periphery of the 96-well plate was only added the medium. The plate was incubated in an incubator for 24 h (37° C., 5% CO2).
Then 20 μL of the dilution was added to the above cell plate, and incubated in an incubator (37° C., 5% CO2) for 5 days. […] The chemiluminescence signal values were read on Victor3, and the data were processed using GraphPad software.

For experiment [3], the system named is 22Rv1 cells. Particulars: Homo sapiens, 120 h; 22RV1, 5 days, 4.5% FBS; read-out: Effect on cell killing (IC50). As to the method: as §1, §2
22Rv1 cells were cultured in an RPMI-1640 medium containing 10% FBS, and passaged twice a week in a passage ratio of 1:3 or 1:6. During passaging, the medium was removed by pipetting, and the cell layer was rinsed with 5 mL of 0.25% pancreatin. […]

One may read the IC50 as the concentration that gives 50% inhibition. As to `CC[C@@]1(O)C(=O)OCc2c1cc1n(c2=O)Cc2c-1nc1cc(F)c(C)c3c1c2[C@@H](NC(=O)[C@H](O)C1CC1)CC3` [Compound 2-B, (R)-2-cyclopropyl-N-((1S,9S)-9-ethyl-5-fluoro-9-hydroxy-4-methyl-10,13-dioxo-2,3,9,10,13,15-hexahydro-1H,12H-benzo[de]pyrano[3′,4′:6,7]indolizino[1,2-b]quinolin-1-yl)-2-hydroxyacetamide], the IC50 in experiment [1] is 8.33 nM; in experiment [2], 1.7 nM; in experiment [3] it was 2.84 nM.
